Experimental findings from ChEMBL document CHEMBL4610055, “Discovery and optimization of novel pyridines as highly potent and selective glycogen synthase kinase 3 inhibitors” (Bioorg Med Chem Lett, 2020) are described below.

Data set [1] can be described thus: Inhibition of GSK3 (unknown origin) using CREB peptide as substrate. More on the design: species or system Homo sapiens.
Data set [2] in a line: Inhibition of GSK3 in CHO cells expressing insulin receptor assessed as activation of glycogen synthase measured after 30 mins in presence of glucose-6-phosphate by filter paper assay. Type of data set: cell-based. The settings on record: Cricetulus griseus, 0.5 h.
A short description of data set [3]: Activity in CHO cells expressing insulin receptor assessed as activation of glycogen synthase.
For data set [4], the target named is Glycogen synthase kinase-3 alpha (Homo sapiens) (UniProt P49840). Nature of the data set: Inhibition of wild-type human full length GSK3A (M1 to S483 residues) expressed in bacterial expression system at 10 uM by Kinomescan method relative to control.
Sequence of Glycogen synthase kinase-3 alpha (Homo sapiens) (P49840 2-483 limits assumed): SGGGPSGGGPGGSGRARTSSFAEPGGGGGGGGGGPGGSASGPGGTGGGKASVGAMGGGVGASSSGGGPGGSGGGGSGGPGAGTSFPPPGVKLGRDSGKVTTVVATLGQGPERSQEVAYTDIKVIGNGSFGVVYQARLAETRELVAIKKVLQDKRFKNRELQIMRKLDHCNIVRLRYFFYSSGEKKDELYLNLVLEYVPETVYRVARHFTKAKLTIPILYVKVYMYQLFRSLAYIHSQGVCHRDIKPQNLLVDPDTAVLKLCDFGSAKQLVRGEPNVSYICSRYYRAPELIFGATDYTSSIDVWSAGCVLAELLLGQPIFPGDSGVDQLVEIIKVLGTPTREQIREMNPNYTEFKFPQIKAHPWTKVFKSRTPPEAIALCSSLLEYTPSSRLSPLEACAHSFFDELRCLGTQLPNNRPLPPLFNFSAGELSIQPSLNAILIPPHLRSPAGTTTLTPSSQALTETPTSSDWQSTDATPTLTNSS
Data set [5] relates to Rattus norvegicus. Nature of the data set: Antidiabetic activity in ZDF rat administered as single dose via oral gavage by OGTT. Type of data set: functional.
Data set [6] in a line: Half life in Beagle dog. Type of data set: ADME, Canis lupus familiaris. The following applies: in vivo.
Data set [7] concerns the target Mitogen-activated protein kinase 9 (Homo sapiens) (UniProt P45984). As to the kind of experiment: Inhibition of wild-type human full length JNK2 (M1 to Q382 residues) expressed in mammalian expression system at 10 uM by Kinomescan method relative to control.
Data set [8] has as its target Mitogen-activated protein kinase 10 (Homo sapiens) (UniProt P53779). As to the kind of experiment: Inhibition of wild-type human partial length JNK3 (V28 to Q422 residues) expressed in mammalian expression system at 10 uM by Kinomescan method relative to control.
In data set [9] the target is Glycogen synthase kinase-3 beta (Homo sapiens) (UniProt P49841). Nature of the data set: Inhibition of wild-type human full length GSK3B (M1 to T433 residues) expressed in mammalian expression system at 10 uM by Kinomescan method relative to control.
Sequence of Glycogen synthase kinase-3 beta (Homo sapiens) (P49841 whole entry, looked up, the tested form may be a part): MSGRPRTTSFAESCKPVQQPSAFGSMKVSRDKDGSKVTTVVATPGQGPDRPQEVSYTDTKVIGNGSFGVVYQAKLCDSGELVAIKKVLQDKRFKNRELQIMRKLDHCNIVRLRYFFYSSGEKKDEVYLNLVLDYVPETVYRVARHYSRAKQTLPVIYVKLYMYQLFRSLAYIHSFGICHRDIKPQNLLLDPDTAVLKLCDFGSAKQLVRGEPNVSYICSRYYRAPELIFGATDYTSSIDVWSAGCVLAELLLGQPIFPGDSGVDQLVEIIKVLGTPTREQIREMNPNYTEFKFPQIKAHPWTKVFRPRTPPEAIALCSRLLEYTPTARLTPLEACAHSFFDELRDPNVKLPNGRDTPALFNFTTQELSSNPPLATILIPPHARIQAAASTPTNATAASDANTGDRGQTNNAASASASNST
Data set [10] is described as follows: Half life in ZDF rat. The following applies: in vivo. In kind it is ADME.
Data set [11] addresses Serine/threonine-protein kinase B-raf (Homo sapiens) (UniProt P15056). As to the kind of experiment: Inhibition of wild-type human partial length BRAF (S429 to E741 residues) expressed in mammalian expression system at 10 uM by Kinomescan method relative to control.
A short description of data set [12]: Oral bioavailability in ZDF rat. The settings on record: in vivo. In kind it is ADME, organism-based.
The target of data set [13] is Mitogen-activated protein kinase 8 (Homo sapiens) (UniProt P45983). Nature of the data set: Inhibition of wild-type human full length JNK1 (M1 to Q384 residues) expressed in mammalian expression system at 10 uM by Kinomescan method relative to control.
Sequence of Mitogen-activated protein kinase 8 (Homo sapiens) (P45983 whole entry, the tested form may be a part): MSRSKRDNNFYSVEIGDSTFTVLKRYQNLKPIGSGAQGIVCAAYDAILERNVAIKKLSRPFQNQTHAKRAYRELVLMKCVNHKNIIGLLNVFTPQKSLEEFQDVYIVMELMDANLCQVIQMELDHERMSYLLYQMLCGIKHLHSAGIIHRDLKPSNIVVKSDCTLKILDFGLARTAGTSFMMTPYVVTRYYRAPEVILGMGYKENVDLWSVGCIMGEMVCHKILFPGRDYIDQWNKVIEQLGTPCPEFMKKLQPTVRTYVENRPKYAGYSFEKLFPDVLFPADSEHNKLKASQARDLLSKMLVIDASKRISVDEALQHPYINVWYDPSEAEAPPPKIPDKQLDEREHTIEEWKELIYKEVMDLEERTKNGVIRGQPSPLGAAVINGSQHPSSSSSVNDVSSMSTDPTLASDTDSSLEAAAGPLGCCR

As a reminder, the IC50 is the concentration at which inhibition is half-maximal. The EC50 is the concentration at which the effect is half-maximal. By inhibition is commonly meant the share of the control response that was lost under treatment. A high value points to a response far below the control. In general, ED50 refers to the dose at which the effect has come halfway, by size or by number of responders. The low end stands for greater potency, the high end for weaker potency. As a reminder, the half-life is the time needed for the level to fall by half in the phase considered. A word on the bioavailability: it is dose-corrected exposure relative to a reference, in per cent.

Sequence of Mitogen-activated protein kinase 10 (Homo sapiens) (P53779 whole entry, the tested form may be a part): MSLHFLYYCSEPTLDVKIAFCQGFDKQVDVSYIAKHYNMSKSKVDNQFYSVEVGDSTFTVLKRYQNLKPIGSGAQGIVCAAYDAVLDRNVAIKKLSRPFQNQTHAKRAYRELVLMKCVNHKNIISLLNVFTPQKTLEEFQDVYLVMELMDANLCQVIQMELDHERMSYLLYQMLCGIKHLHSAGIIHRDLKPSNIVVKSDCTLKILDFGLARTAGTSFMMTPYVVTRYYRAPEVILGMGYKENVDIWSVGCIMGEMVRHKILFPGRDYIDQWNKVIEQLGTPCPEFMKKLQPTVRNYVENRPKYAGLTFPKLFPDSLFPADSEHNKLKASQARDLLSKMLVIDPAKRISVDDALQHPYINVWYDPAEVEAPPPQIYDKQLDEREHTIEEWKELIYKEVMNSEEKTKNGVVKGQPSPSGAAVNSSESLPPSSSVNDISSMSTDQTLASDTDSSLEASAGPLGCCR
Sequence of Serine/threonine-protein kinase B-raf (Homo sapiens) (P15056 whole entry, the tested form may be a part): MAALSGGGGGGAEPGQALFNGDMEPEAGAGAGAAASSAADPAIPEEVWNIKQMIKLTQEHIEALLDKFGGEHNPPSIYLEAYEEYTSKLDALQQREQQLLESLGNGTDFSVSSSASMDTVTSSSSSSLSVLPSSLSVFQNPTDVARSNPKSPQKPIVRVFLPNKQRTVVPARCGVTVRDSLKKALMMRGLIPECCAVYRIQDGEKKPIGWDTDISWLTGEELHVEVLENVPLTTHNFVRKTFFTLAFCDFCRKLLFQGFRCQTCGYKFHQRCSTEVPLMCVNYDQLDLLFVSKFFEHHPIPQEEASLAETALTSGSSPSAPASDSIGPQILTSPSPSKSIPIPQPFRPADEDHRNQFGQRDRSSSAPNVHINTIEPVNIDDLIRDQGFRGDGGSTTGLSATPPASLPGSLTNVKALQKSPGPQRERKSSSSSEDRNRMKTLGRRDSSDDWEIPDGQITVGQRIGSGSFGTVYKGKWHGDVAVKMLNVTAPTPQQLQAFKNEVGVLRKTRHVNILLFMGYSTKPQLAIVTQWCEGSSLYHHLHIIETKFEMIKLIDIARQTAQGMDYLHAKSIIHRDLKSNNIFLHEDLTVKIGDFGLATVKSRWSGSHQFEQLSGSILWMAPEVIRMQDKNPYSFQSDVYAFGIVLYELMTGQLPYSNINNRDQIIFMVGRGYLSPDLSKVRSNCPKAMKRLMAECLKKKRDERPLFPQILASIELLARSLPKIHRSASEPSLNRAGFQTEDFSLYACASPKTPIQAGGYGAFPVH
Sequence of Mitogen-activated protein kinase 9 (Homo sapiens) (P45984 whole entry, looked up, the tested form may be a part): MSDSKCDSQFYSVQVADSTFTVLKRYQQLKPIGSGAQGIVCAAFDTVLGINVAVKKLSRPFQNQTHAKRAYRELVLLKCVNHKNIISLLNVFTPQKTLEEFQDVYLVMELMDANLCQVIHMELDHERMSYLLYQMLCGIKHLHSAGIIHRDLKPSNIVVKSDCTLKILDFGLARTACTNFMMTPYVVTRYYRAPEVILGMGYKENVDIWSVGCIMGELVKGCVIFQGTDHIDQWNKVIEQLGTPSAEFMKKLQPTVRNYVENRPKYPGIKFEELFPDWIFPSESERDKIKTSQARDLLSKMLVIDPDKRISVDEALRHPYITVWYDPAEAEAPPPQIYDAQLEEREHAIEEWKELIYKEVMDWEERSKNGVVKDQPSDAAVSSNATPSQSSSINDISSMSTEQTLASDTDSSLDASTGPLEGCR

Consider `Nc1nc(NCCNc2ccc(N3CCCCC3=O)c(-c3ccc(Cl)cc3Cl)n2)ccc1[N+](=O)[O-]`, for which, in data set [1], it took 13 nM to reach half-maximal inhibition (IC50). Besides, the EC50 in [2] stood at 70 nM.

For the compound `Cc1cnc(-c2cnc(NCCNc3ccc(C#N)cn3)nc2-c2ccc(Cl)cc2Cl)[nH]1` [LADUVIGLUSIB], the EC50 in data set [3] and in data set [2] was 770 nM each time.

In turn, `C[C@H](CNc1ccc([N+](=O)[O-])c(N)n1)Nc1ccc(N2CCN(C)CC2=O)c(-c2ccc(Cl)cc2Cl)n1` had an IC50 in data set [1] of 207 nM.

In [1], `CN1CCN(c2ccc(NCCNc3ccc([N+](=O)[O-])c(N)n3)nc2-c2ccoc2)C(=O)C1` showed an IC50 of 3700 nM.

Regarding `Nc1nc(NCCNc2ccc(N3CCN(C4CC4)CC3=O)c(-c3ccc(Cl)cc3Cl)n2)ccc1[N+](=O)[O-]`, in data set [1], 13 nM corresponded to half-maximal inhibition (IC50). The EC50 in data set [2] was 40 nM.

Compound `CN1CCN(c2ccc(NCCNc3ccc([N+](=O)[O-])c(N)n3)nc2-c2ccc(Cl)cc2)C(=O)C1` displayed an IC50 in data set [1] of 44 nM. For the same compound, the EC50 in [2] was 760 nM.

As for `C[C@@H](CNc1ccc(N2CCN(C)CC2=O)c(-c2ccc(Cl)cc2Cl)n1)Nc1ccc([N+](=O)[O-])c(N)n1`, the IC50 in data set [1] is 66 nM. In [2], the EC50 came to 1050 nM.

As to `Nc1nc(NCCNc2ccc(N3CCN(CC(F)(F)F)CC3=O)c(-c3ccc(Cl)cc3Cl)n2)ccc1[N+](=O)[O-]`, in data set [1], the IC50 is 18 nM. The EC50 in data set [2] turned out to be 1800 nM.

`Nc1nc(NCCNc2ccc(N3CCNCC3=O)c(-c3ccc(Cl)cc3Cl)n2)ccc1[N+](=O)[O-]` showed an IC50 in [1] of 11 nM. The EC50 in data set [2] amounted to 140 nM.

`C[C@@H](CNc1ccc([N+](=O)[O-])c(N)n1)Nc1ccc(N2CCN(C)CC2=O)c(-c2ccc(Cl)cc2Cl)n1`: the IC50 in data set [1] worked out at 36 nM. Besides, the EC50 in [2] was determined as 310 nM.

Compound `CN1CCN(c2ccc(NCCNc3ccc([N+](=O)[O-])c(N)n3)nc2-c2ccccc2)C(=O)C1` registered an IC50 in [1] of 202 nM.

In data set [1], `Nc1nc(NCCNc2ccc(NC(=O)CNCCO)c(-c3ccc(Cl)cc3Cl)n2)ccc1[N+](=O)[O-]` had an IC50 of 12 nM. Further, the EC50 in data set [2] worked out at 1600 nM.

`CC(=O)N1CCN(c2ccc(NCCNc3ccc([N+](=O)[O-])c(N)n3)nc2-c2ccc(Cl)cc2Cl)C(=O)C1`: the IC50 in data set [1] turned out to be 13 nM. The EC50 in data set [2] came to 1400 nM.

Consider `CCc1ccc(-c2nc(NCCNc3ccc([N+](=O)[O-])c(N)n3)ccc2N2CCN(C)CC2=O)cc1`, for which the IC50 in data set [1] came out at 52 nM. Also, the EC50 in data set [2] came to 290 nM.

In data set [1], `Nc1nc(NCCNc2ccc(N3CCCC3=O)c(-c3ccc(Cl)cc3Cl)n2)ccc1[N+](=O)[O-]` gave an IC50 of 5 nM. The EC50 in data set [2] worked out at 530 nM.

For the compound `CN1CCN(c2ccc(NCCNc3ccc([N+](=O)[O-])c(N)n3)nc2-c2ccc(F)cc2F)C(=O)C1`, the IC50 in data set [1] is 69 nM. The EC50 in [2] came out at 1080 nM.

Consider `CN1CCN(c2ccc(NCCNc3ccc([N+](=O)[O-])c(N)n3)nc2-c2ccc(Cl)cc2Cl)C(=O)C1`, for which the inhibition in data set [4] came to 99.5%; in data set [7] it was 97.4%; in data set [8], 98.3%; in data set [9], 95.8%; in data set [11], 91.8%; in data set [13] it was 92.2%. In data set [5], this compound showed an ED50 of 10 mg/kg. Further, the half-life in data set [6] worked out at 2.72 h; in [10], 3.42 h. Further, the bioavailability in data set [12] was 30%. This compound displayed an IC50 in data set [1] of 8 nM. Moreover, the EC50 in [2] is 130 nM.

In data set [1], `CN1CCN(c2ccc(NCCNc3ccc([N+](=O)[O-])c(N)n3)nc2-c2cccc(Cl)c2)C(=O)C1` gave an IC50 of 74 nM. Moreover, in [2], the 50% effective concentration (EC50) stood at 3000 nM.

On to `CN1CCN(c2ccc(NCCNc3ccc([N+](=O)[O-])c(N)n3)nc2-c2ccccc2Cl)C(=O)C1`, for which, in data set [1], half-maximal inhibition (IC50) required 29 nM. In addition, the EC50 in [2] came to 1350 nM.

In turn, `CN1CCN(c2ccc(NCCNc3ccc([N+](=O)[O-])c(N)n3)nc2-c2ccccc2C(F)(F)F)C(=O)C1` displayed a concentration for half-maximal inhibition (IC50) in [1] of 57 nM. Also, the EC50 in data set [2] came out at 760 nM.

`Nc1nc(NCCNc2ccc(N3CCOCC3=O)c(-c3ccc(Cl)cc3Cl)n2)ccc1[N+](=O)[O-]`: inhibition in [1] was half-maximal at 11 nM (IC50). In addition, in data set [2], the EC50 came out at 510 nM.

Regarding `C[C@H](CNc1ccc(N2CCN(C)CC2=O)c(-c2ccc(Cl)cc2Cl)n1)Nc1ccc([N+](=O)[O-])c(N)n1`, the midpoint of inhibition in data set [1], the IC50, lay at 1010 nM. In other words, the single-digit micromolar range.

In turn, `CN1CCN(c2ccc(N(C)CCNc3ccc([N+](=O)[O-])c(N)n3)nc2-c2ccc(Cl)cc2Cl)C(=O)C1` gave an IC50 in [1] of 15 nM. Also, in data set [2], the EC50 was determined as 220 nM.
